Where only a bound is given, the exact number is not on record here.

The target in the first test is T1, Gag-Pol polyprotein [588-1027]/[588-1147] (Human immunodeficiency virus 1, UniProt P04585).
T1 construct: 588-1027; 588-1147
The test is described as follows: HIV-1 RT Assay.
Settings: not given
Regarding `O=C1c2ncccc2C2(c3ccccc3)SCCN12` (stereo not drawn) [2-phenyl-3-thia-6,9-diazatricyclo[6.4.0.0^{2,6}]dodeca-1(12),8,10-trien-7-one], the IC50 was above 100 µM.
`O=C1c2cnccc2C2(c3ccccc3)SCCN12` (stereo not drawn) [2-phenyl-3-thia-6,10-diazatricyclo[6.4.0.0^{2,6}]dodeca-1(12),8,10-trien-7-one]: the IC50 was above 100 µM.
With `O=C1c2ccccc2C2(c3ccccc3)Sc3ccccc3N12` (stereo not drawn) [9-phenyl-8-thia-1-azatetracyclo[7.7.0.0^{2,7}.0^{10,15}]hexadeca-2,4,6,10,12,14-hexaen-16-one], the midpoint of inhibition, the IC50, lay at 40 µM.
The compound `O=C1c2ccccc2C2(c3ccncc3)SCCN12` (stereo not drawn) [9b-(pyridin-4-yl)-2H,3H,5H,9bH-isoindolo[1,2-b][1,3]thiazol-5-one] displayed an IC50 above 30 µM.
The same measure, in the same setting: then `O=C1c2ccccc2C2(c3ccccc3)NCCN12` (stereo not drawn) [9b-phenyl-1H,2H,3H,5H,9bH-imidazolidino[2,1-a]isoindol-5-one], with above 100 µM; and `O=C1c2ccccc2C2(c3ccccc3)N1CCS2(=O)=O` (stereo not drawn) [9b-phenyl-2H,3H,5H,9bH-1,4000000-isoindolo[1,2-b][1,3]thiazole-1,1,5-trione], with above 10 µM.
`O=C1c2ccccc2C2(c3ccccc3)NCCCN12` (stereo not drawn) [10b-phenyl-1H,2H,3H,4H,6H,10bH-pyrimido[2,1-a]isoindol-6-one] yielded an IC50 above 10 µM.
In turn, `O=C1c2c(ccc3ccccc23)C2(c3ccccc3)SCCN12` (stereo not drawn) [11-phenyl-12-thia-15-azatetracyclo[8.6.0.0^{2,7}.0^{11,15}]hexadeca-1,3,5,7,9-pentaen-16-one] yielded an IC50 above 100 µM.
With `C[C@@H]1CN2C(=O)c3ccccc3[C@@]2(c2ccccc2)O1` [(2R,9bR)-2-methyl-9b-phenyl-2H,3H,5H,9bH-isoindolo[1,2-b][1,3]oxazol-5-one], the midpoint of inhibition, the IC50, lay at 37.6 µM.
`C[C@H]1CN2C(=O)c3ccccc3[C@@]2(c2ccccc2)O1` [(2S,9bR)-2-methyl-9b-phenyl-2H,3H,5H,9bH-isoindolo[1,2-b][1,3]oxazol-5-one] returned an IC50 above 100 µM.
`O=C(O)[C@H]1CSC2(c3ccccc3)c3ccccc3C(=O)N12` (stereo partly drawn) [(3S)-5-oxo-9b-phenyl-2H,3H,5H,9bH-isoindolo[1,2-b][1,3]thiazole-3-carboxylic acid]: the half-maximal inhibitory concentration (IC50) was above 100 µM.

The same test, now with this note: pH 7.7; 37 °C.
In turn, `O=C1c2ccccc2C2(c3ccc[nH]3)SCCN12` (stereo not drawn) [9b-(1H-pyrrol-2-yl)-2H,3H,5H,9bH-isoindolo[1,2-b][1,3]thiazol-5-one] yielded an IC50 above 100 µM.
`COc1ccc(C23SCCN2C(=O)c2ccccc23)cc1` (stereo not drawn) [9b-(4-methoxyphenyl)-2H,3H,5H,9bH-isoindolo[1,2-b][1,3]thiazol-5-one]: the IC50 is above 30 µM.

The record behind these values is BindingDB's records for doi:10.1021/jm00069a011 (Boehringer Mannheim, 1993).
